Assay results reported in patent publication US20240148745A1, “COMPOUNDS FOR USE IN PROGRESSIVE MULTIPLE SCLEROSIS” (FONDAZIONE CENTRO SAN RAFFAELE, priority 2021, published 2024).
Structures can show the parent of a compound that is named as a salt.

tested on: rat oligodendrocyte progenitor CG4 line; assay: Differentiation assay on rat oligodendrocyte progenitor CG4 line (HCS, mCherry+); type: cell-based; conditions: secondary screen of 49 selected compounds, 1 μM, 5 days
Description: Primary validation on CG4 line toxicity and differentiation. An innovative OPC line was developed for fast and reliable high content screening (HCS) of small compounds inducing oligodendrocyte differentiation. The line was genetically engineered by lentiviral transduction of rat CG4 cells (PubMed=1613821; DOI=10.1002/jnr.490310125; Louis J. C., Magal E., Muir D., Manthorpe M., Varon S.; CG-4, a new bipotential glial cell line from rat brain, is capable of differentiating in vitro into either mature oligodendrocytes or type-2 astrocytes. J. Neurosci. Res. 31:193-204(1992) to express mCherry fluorescent reporter (Evercooren, Anne & Avellana-Adalid, V. & Vitry, Sandrine & Nait-Oumesmar, Brahim & Lachapelle, Francois. (1997). Expansion of Oligodendrocyte Progenitors for Myelin Repair. 10.1007/978-1-4615-5949-8_21) in mature oligodendrocytes only, and EGFP at all stage of the oligodendroglial lineage: both the generation of mature oligodendrocytes (wmNl-mCherry) and the morphological changes associated with differentiation (CMV-EGFP) can be therefore monitored in a single assay. mCherry expression occurred only in O4+/GalC+ differentiated oligodendrocytes and GFP was ubiquitously expressed at all developmental stages. The line so obtained was validated using compounds with well-established effects on oligodendrocyte differentiation (cAMP and T3). Cell-based assay was standardized on the HCS platform (ArrayScanXTI, Brain and Spine Institute (Paris), validating the pro-differentiation effects of clemastine^27 and 9cis-retinoic acid.^28 For HCS validation of 274 compounds identified through in silico screen, double-fluo CG4 line cells were plated in 96 well-plates, 6500 cells/cm^2 and left for 24 h in proliferation. The other day, compounds were added (1 μM) for next 5 days of differentiation, with ⅔ medium changed after 3 days. 9-cis Retinoic Acid (9cis-RA; […]) served as a positive control, negative controls were basal (N1) medium and vehicle (basal+0.1% DMSO). Each compound was tested in triplicate and were imaged with ArrayScanXTI system (35 fields/well) after 5 days of differentiation.
FIG. 4 provides a schematic representation of High Content Screening (HCS) validation of the 274 compounds identified through in silico screening using CG4 line. […] In addition, the whole short list of 160 non-toxic compounds were screened using the CG4 high content phenotypic assay to further confirm the data from primary screening and to potentially select additional compounds with pro-myelinating activities. From this screening of the short list, 49 hit compounds were identified that increase differentiation either of CG4 cells or primary OPCs (FIG. 6).

SMILES | CG4 differentiation compared with 9cis-RA positive control
Cc1cncc(CN2CCC(=C3c4ccc(Cl)cc4CCc4cccnc43)CC2)c1 [Rupatadine] | promoting differentiation significantly higher than 9cis-RA positive control
O=C1NC(=O)C(c2cnc3ccccn23)=C1c1cn2c3c(cc(F)cc13)CN(C(=O)N1CCCCC1)CC2 [LY-2090314] | promoting differentiation significantly higher than 9cis-RA positive control
Cc1cc(Oc2ccc3nc(COc4ccc(CC5SC(=O)NC5=O)cc4)n(C)c3c2)cc(C)c1N (centres unmarked) [Efatutazone hydrochloride, Efatutazone Hydrochloride] | promoting differentiation significantly higher than 9cis-RA positive control
C[N+](C)(C)CCOP(=O)([O-])OC[C@H](O)CO [CHOLINE ALFOSCERATE] | promoting differentiation significantly higher than 9cis-RA positive control
COCCOc1cnc2ccn([C@H](C)c3nnc4c(F)cc(-c5cnn(C)c5)cn34)c(=O)c2c1 [AMG-337] | promoting differentiation significantly higher than 9cis-RA positive control
Cc1ccc(C(=O)NC2CC2)cc1-n1ncc(C(=O)c2cccc(C#N)c2)c1N [Acumapimod] | promoting differentiation significantly higher than 9cis-RA positive control
Cc1cc(Nc2cc(CN3CCOCC3)c3nc(C)c(Cc4ccc(Cl)cc4F)n3n2)n[nH]1 [GANDOTINIB, Gandotinib] | promoting differentiation significantly higher than 9cis-RA positive control
O=c1oc2c(O)c(O)cc3c(=O)oc4c(O)c(O)cc1c4c23 [Ellagic Acid] | promoting differentiation significantly higher than 9cis-RA positive control
CNC(=O)c1cc(Oc2ccc(NC(=O)Nc3cc(C(C)(C)C)nn3-c3ccc4ncccc4c3)c(F)c2)ccn1 [REBASTINIB] | promoting differentiation significantly higher than 9cis-RA positive control
CN(C(=O)c1ccc(F)cc1C(F)(F)F)C1CCN(c2nnc(-c3ccnn3C)c3ccccc23)CC1 [Taladegib] | promoting differentiation significantly higher than 9cis-RA positive control
C[C@]12CCC(=O)C[C@@H]1CC[C@@H]1[C@@H]2CC[C@]2(C)[C@@H](O)CC[C@@H]12 [STANOLONE] | promoting differentiation significantly higher than 9cis-RA positive control
CCCc1nc(C(F)(F)F)ccc1/C=C/C(=O)N[C@H](C)c1cc(F)c(NS(C)(=O)=O)c(F)c1 [PAC-14028] | promoting differentiation significantly higher than 9cis-RA positive control
O=C(O)Cn1c2c(c3cc(F)ccc31)CN(C(=O)c1cccc3ccccc13)CC2 [SETIPIPRANT] | promoting differentiation significantly higher than 9cis-RA positive control
CN(C(=O)C(c1ccccc1)c1ccccc1)[C@H](CN1CC[C@H](O)C1)c1ccccc1 [ASIMADOLINE] | promoting differentiation significantly higher than 9cis-RA positive control

tested on: mouse cortical neurons; assay: Morphological integrity evaluation, NMDA 8 μM (MAP2 neurite length and branching); type: cell-based; conditions: 3 h pre-treatment, NMDA 8 μM 24 h; Z>0.5 criteria
Experimental: Apart of viability/metabolic readout in NMDA-mediated neurotoxicity assay, a neuronal structural integrity was evaluated by MAP2 staining. Mouse cortical neurons (14 DIV) cultured in MW96 plates were fixed with 4% paraformaldehyde (PFA). Fixed cells were incubated with blocking solution (PBS 1×, donkey serum 5%, Triton 0.1%) for 1-hour, primary antibody (rabbit α-MAP2, 1:250, Millipore) was applied in the same solution overnight at +4° C. […] Nuclei were stained with 4′-6-diamidino-2-phenylindole (DAPI, Roche). Microscopy was performed using ArrayScan™XTI (ThermoFisher) imaging platform. 15 images per well were acquired and analyzed by CellProfiler. Total neurite length and the total number of non-trunk branches were analyzed. Total neurite length and the total number of branching were evaluated from 15 images/well, each compound or control was tested in triplicates. The total neurite length and total number of branches were converted to a standardized Z-score using formula: Xij=((Xij−μ)/σ), where xij is the raw measurement of the compound located in well (i, j), and μ and σ are, respectively, the mean and the standard deviation of all measurements of the plate.^31
The morphological integrity of mouse cortical neurons upon chronic 24 h NMDA (8 μM) exposure with compounds pre-treatment (3 h) in preventive regimen was evaluated. Control (basal), DMSO, N-acetylcysteine (NAC) served as positive controls, while staurosporine and NMDA were negative controls.

SMILES | preservation of neurite length and network integrity (branching)
Cc1cc(F)c(C(=O)Nc2cccc(-c3nncn3C(C)C)n2)cc1-n1cnc(C2CC2)c1 [GS-4997] | preserved both neurite length and the network integrity (branching)
CNC(=O)c1ccc2cc([C@@]3(O)CCn4cncc43)ccc2c1 [Orteronel] | preserved both neurite length and the network integrity (branching)
CC(=O)N(C)c1cccc(-c2ccnc3c(C(=O)c4cccs4)cnn23)c1 [Indiplon] | preserved both neurite length and the network integrity (branching)
O=C(O)CCn1c2c(c3ccccc31)C[C@H](NS(=O)(=O)c1ccc(F)cc1)CC2 [Ramatroban] | preserved both neurite length and the network integrity (branching)
NC(=O)c1ccc(N(C(N)=O)c2c(F)cccc2F)nc1-c1ccc(F)cc1F [VX-702] | preserved both neurite length and the network integrity (branching)
CC(C)(C)S(=O)(=O)N[C@H]1CC[C@H](C(=O)Nc2ccc(C(F)(F)F)cn2)CC1 [Velneperit] | preserved both neurite length and the network integrity (branching)
O=C(O)[C@H](CC(=O)N1C[C@H]2CCCC[C@H]2C1)Cc1ccccc1 [Mitiglinide] | preserved both neurite length and the network integrity (branching)
CN1Cc2cc(Cl)ccc2-n2c(nnc2[C@H]2CC[C@H](Oc3ccccn3)CC2)C1 [RG7314] | preserved both neurite length and the network integrity (branching)
CC[C@H](CO)Nc1nc(NCc2ccccc2)c2ncn(C(C)C)c2n1 [Seliciclib] | preserved both neurite length and the network integrity (branching)
CN=C(NS(=O)(=O)c1ccc(Cl)cc1)N1C[C@H](c2ccccc2)C(c2ccc(Cl)cc2)=N1 [Ibipinabant] | preserved both neurite length and the network integrity (branching)
CC[C@H](NC(=O)c1cc(-c2ccccc2)nc2ccccc12)c1ccccc1 [AZD-7624] | preserved both neurite length and the network integrity (branching)
O=c1sn(-c2cccc3ccccc23)c(=O)n1Cc1ccccc1 [Tideglusib] | preserved both neurite length and the network integrity (branching)
CNC(=O)c1ccc(-c2cnc3ncc(Cc4ccc5ncccc5c4)n3n2)cc1F [Capmatinib] | preserved both neurite length and the network integrity (branching)
C[C@@H]1COC(Nc2ccc3ncnc(Nc4ccc(OCc5nccs5)c(Cl)c4)c3c2)=N1 [Varlitinib] | preserved both neurite length and the network integrity (branching)
COc1ccsc1CNCC[C@@]1(c2ccccn2)CCOC2(CCCC2)C1 [Oliceridine] | preserved both neurite length and the network integrity (branching)
N[C@@H](Cc1ccccc1)C(=O)O [L-Phenylalanine] | preserved both neurite length and the network integrity (branching)

tested on: murine cortical neurons (14 DIV); assay: NMDA-mediated neuroprotective assay (CCK8 viability); type: cell-based, mouse; conditions: 1 μM, 3 h pre-treatment, NMDA 8 μM 24 h, p<0.05
Experimental: To assess neuroprotective activity of 160 selected non-toxic compounds on primary murine cortical neurons, obtained as described in the previous paragraph, ([…]), cultures were pre-treated with 1 μM compounds for either 3 or 24 hours, followed by 24 hours chronic stimulation with NMDA (8 μM) to induce neuronal damage. Each test plate included: a negative control (untreated), vehicle-treated control (0.02% vol/vol DMSO), a positive neurotoxic control—staurosporine 0.1 μM, a stressor—NMDA 8 μM, a positive neuroprotective control—NAC 300 μM, and a combination of stressor +neuroprotective molecule (NMDA+NAC). Cell viability was measured with Cell Counting Kit-8 assay compared to NMDA-treated control.
The potential neuroprotective activity of 160 selected non-toxic compounds was evaluated on murine cortical neurons (14 DIV) with either 3 h (FIG. 13) or 24 h compounds pre-treatment (FIG. 14). In assay with 3 h pre-treatment, 17 compounds were identified as potential NMDA-neuroprotective hits (marked with black asterisk in FIG. 13, stat. significant at p<0.05, Kruskal-Wallis test with post-hoc two-stage linear step-up procedure of Benjamini, Krieger and Yekutieli multiple comparison correction).

SMILES | neuroprotection of viability/metabolic activity against NMDA
O=C(Nc1ccccc1Br)N[C@@H]1CCN(c2ccc(C(F)(F)F)cn2)C1 [SB-705498] | hit compounds
CN(C(=O)/C=C/c1ccoc1)[C@@H]1CC[C@@]2(O)[C@H]3Cc4ccc(O)c5c4[C@@]2(CCN3CC2CC2)[C@H]1O5 [Nalfurafine hydrochloride] | hit compounds
